Laboratory results taken from ChEMBL document CHEMBL1139185, “Methyl spongoate, a cytotoxic steroid from the Sanya soft coral Spongodes sp” (Bioorg Med Chem Lett, 2007).
Values after ≈ are worked out from the molar mass of the structure shown.

Experiments:
Format in all cases: functional, cell-based
[1] = system: Bel-7402; experiment: Cytotoxicity against human BEL-7402 cells
[2] = system: A549; experiment: Cytotoxicity against human A549 cells
[3] = system: HT-29; experiment: Cytotoxicity against human HT29 cells
[4] = system: P388; experiment: Cytotoxicity against mouse P388 cells

## COC(=O)[C@H](CCCC(C)C)[C@H]1CC[C@H]2[C@@H]3CC[C@H]4CC(=O)C=C[C@]4(C)[C@H]3CC[C@]12C [METHYL SPONGOATE]
[1]
  IC50: 0.14 µg/mL (≈ 0.327 µM)
[2]
  IC50: 5 µg/mL (≈ 11.7 µM)
[3]
  IC50: 5 µg/mL (≈ 11.7 µM)
[4]
  IC50: 3.8 µg/mL (≈ 8.86 µM)
